Where “and” joins values, the source holds several entries; their conditions need not be identical. Equal values may be shown once.

Common to all, as to type: in vivo
For assay [1], the system named is Fimbristylis miliacea (L.) VAHL (FIMMI). As to the kind of experiment: Herbicidal mixtures for weed control in transplanted paddy rice (in-water application, visual % injury). The procedure:
Weed seeds or nutlets of the desired test plant species were planted in puddled soil (mud) prepared by mixing a non-sterilized mineral soil (28 percent silt, 18 percent clay, and 54 percent sand, with a pH of about 7.3 to 7.8 and an organic matter content of about 1.0 percent) and water at a ratio of 100 kilograms (kg) of soil to 19 L of water. The prepared mud was dispensed in 250 mL aliquots into 480 mL non-perforated plastic pots with a surface area of 91.6 square centimeters leaving a headspace of 3 centimeters in each pot. Rice seeds were planted in Sun Gro MetroMix® 306 planting mixture, which typically has a pH of 6.0 to 6.8 and an organic matter content of about 30 percent, in plastic plug trays. Seedlings at the second or third leaf stage of growth were transplanted into 650 mL of mud contained in 960 mL non-perforated plastic pots with a surface area of 91.6 cm^2 4 days prior to herbicide application. The paddy was created by filling the 3 centimeter headspace of the pots with water. […] The plants were grown for 4-14 days in a greenhouse with an approximate 14 hr photoperiod which was maintained at about 29° C. during the day and 26° C. during the night. Nutrients were added as Osmocote (17:6:10, N:P:K+minor nutrients) at 2 g per cup. Water was added on a regular basis to maintain the paddy flood, and supplemental lighting was provided with overhead metal halide 1000-Watt lamps as necessary. The plants were employed for testing when they reached the second or third true leaf stage.
(§1) Treatments consisted of esters or salts of compound A, compound C, or compound D and various herbicidal components alone and in combination. For technical grade compounds, a weighed amount, determined by the highest rate to be tested, was placed in an individual 120 mL glass vial and was dissolved in 20 mL of acetone to obtain concentrated stock solutions. […] The concentrated stock solutions obtained were diluted with 20 mL of an aqueous mixture containing 2.5% Agri-dex crop oil concentrate (v/v). For formulated compounds, a measured amount, determined by the highest rate to be tested, was placed in an individual 120 mL glass vial and was dissolved in 20 mL of 2.5% (v/v) Agri-dex crop oil concentrate to obtain concentrated stock solutions. The concentrated stock solutions obtained were diluted with 20 mL of acetone. Applications were made by injecting an appropriate amount of the stock solution into the aqueous layer of the paddy. Control plants were treated in the same manner with the solvent blank. All treated plant material received the same concentration of acetone and crop oil concentrate.
(§2) Forms of compounds A, C, and D were applied on an acid equivalent basis. Other herbicidal components were applied on an active ingredient basis and included acetolactate synthase (ALS)-inhibiting herbicides penoxsulam (triazolopyrimidine chemical class) applied as Grasp SC, […] (sulfonylurea chemical class) applied as Sirius G, and bensulfuron-methyl (sulfonylurea chemical class) applied as Londax; acetyl CoA carboxylase (ACCase) inhibiting herbicides cyhalofop-butyl applied as Clincher G and fenoxaprop-p-ethyl applied as Ricestar HT; auxinic herbicide quinclorac applied as Facet 75 DF; phytoene desaturase inhibiting herbicide norflurazon; and p-hydroxyphenylpyruvate dioxygenase (HPPD) inhibiting herbicide sulcotrione applied as Mikado.
(§3) The treated plants and control plants were placed in a greenhouse as described above and water was added as needed to maintain a paddy flood. After 3 weeks the condition of the test plants as compared with that of the untreated plants was determined visually and scored on a scale of 0 to 100 percent where 0 corresponds to no injury and 100 corresponds to complete kill.

Assay [2] relates to Echinochloa species (ECHSS). Nature of the assay: Herbicidal mixtures for weed control in transplanted paddy rice (in-water application, visual % injury after 3 weeks). The procedure: (§4) Weed seeds or nutlets of the desired test plant species were planted in puddled soil (mud) prepared by mixing a non-sterilized mineral soil (28 percent silt, 18 percent clay, and 54 percent sand, with a pH of about 7.3 to 7.8 and an organic matter content of about 1.0 percent) and water at a ratio of 100 kilograms (kg) of soil to 19 L of water. The prepared mud was dispensed in 250 mL aliquots into 480 mL non-perforated plastic pots with a surface area of 91.6 square centimeters leaving a headspace of 3 centimeters in each pot. Rice seeds were planted in Sun Gro MetroMix® 306 planting mixture, which typically has a pH of 6.0 to 6.8 and an organic matter content of about 30 percent, in plastic plug trays. Seedlings at the second or third leaf stage of growth were transplanted into 650 mL of mud contained in 960 mL non-perforated plastic pots with a surface area of 91.6 cm^2 4 days prior to herbicide application. The paddy was created by filling the 3 centimeter headspace of the pots with water. When required to ensure good germination and healthy plants, a fungicide treatment and/or other chemical or physical treatment was applied. The plants were grown for 4-14 days in a greenhouse with an approximate 14 hr photoperiod which was maintained at about 29° C. during the day and 26° C. during the night. Nutrients were added as Osmocote (17:6:10, N:P:K+minor nutrients) at 2 g per cup. Water was added on a regular basis to maintain the paddy flood, and supplemental lighting was provided with overhead metal halide 1000-Watt lamps as necessary. The plants were employed for testing when they reached the second or third true leaf stage.
as §1, §2, §3

In assay [3] the test system is Leptochloa chinensis (L.) NEES (LEFCH). As to the kind of experiment: Postemergence herbicidal mixtures for weed control in direct seeded rice (greenhouse, visual % injury).
For the next assay, the system named is Cyperus species (CYPSS). Nature of the assay: Herbicidal mixtures for weed control in transplanted paddy rice (in-water application, visual % injury). The procedure:
as §4, §1, §2, §3

Assay [4] concerns Eleocharis kuroguwai OHWI (ELOKU). The description is as above. The procedure: as §4, §1, §2, §3
The test system of assay [5] is Leptochloa chinensis (L.) NEES (LEFCH). The description is as above. The procedure: as §4, §1, §2, §3
In assay [6] the test system is Cyperus esculentus L. (CYPES). As to the kind of experiment: Postemergence herbicidal mixtures for weed control in direct seeded rice (greenhouse, visual % injury).
The next assay deals with Cyperus iria L. (CYPIR). Described as above.
In assay [7] the test system is Polygonum persicaria L. (POLPE). The description is as above.
Assay [8] deals with Polygonum pensylvanicum L. (POLPY). The description is as above.
Assay [9] concerns Ipomoea hederacea (L.) JACQ. (IPOHE). As to the kind of experiment: Postemergence herbicidal mixtures for weed control in direct seeded rice (greenhouse, visual % injury after 3 weeks).
Assay [10] has as its system Ischaemum rugosum SALISB. (ISCRU). As to the kind of experiment: Postemergence herbicidal mixtures for weed control in direct seeded rice (greenhouse, visual % injury).
The subject of assay [11] is Scirpus maritimus L. (SCPMA). The assay is described as above.

For the compound `COC(=O)c1ccccc1CS(=O)(=O)NC(=O)Nc1nc(OC)cc(OC)n1` [Bensulfuron-methyl], the “% Injury Ob” value in [1] (35 g/ha alone) is 10%; in assay [1] (70 g/ha alone), 50%; in assay [2] (ECHCG, 70 g/ha alone) it was 45% and 70%; in assay [2] (ECHCO, 35 g/ha alone), 20%; in assay [2] (ECHCO, 70 g/ha alone) it was 30%; in the assay with Cyperus species (CYPSS) (CYPES, 4.38 g/ha alone), 40%. For the same compound, the “% Injury Ob” value is 50% in the assay on Cyperus species (CYPSS) (CYPES, 8.75 g/ha alone); 20% in [4] (35 g/ha alone); 70% in assay [4] (70 g/ha alone); 15% in assay [5] (35 g/ha alone); 30% in [5] (70 g/ha alone). Further, the “% Injury LEFCH Ob” value in [3] (alone 4.38 g/ha) is 20%; in assay [3] (alone 8.75 g/ha), 0%.

Regarding `CCOC(=O)C(Cl)Cc1cc(-n2nc(C)n(C(F)F)c2=O)c(F)cc1Cl` (stereo not shown) [Carfentrazone-ethyl], the “% Injury 11 DAA CYPES Ob” value in assay [6] (alone 14 g/ha) and in [6] (alone 28 g/ha) was 10% in each case. For the same compound, the “% Injury 21 DAA CYPES Ob” value in assay [6] (alone 14 g/ha) and in assay [6] (alone 28 g/ha) was 0% throughout. Moreover, the “% Injury CYPES Ob” value in [6] (alone 56 g/ha) is 10%; in assay [6] (alone 112 g/ha) it was 0%. In addition, the “% Injury CYPIR Ob” value in the assay with Cyperus iria L. (CYPIR) (alone 14 g/ha) and with Cyperus iria L. (CYPIR) (alone 28 g/ha) was 0% in each case. The “% Injury POLPE Ob” value in [7] (alone 14 g/ha) turned out to be 0%.

With `COC(=O)c1nc(-c2ccc(Cl)c(OC)c2Cl)cc(N)c1Cl` [Compound C Methyl], the “% Injury POLPY Ob” value worked out at 10% in assay [8] (alone 8.75 g/ha) and 15% in [8] (alone 17.5 g/ha). Besides, in assay [6] (alone 17.5 g/ha), the “% Injury CYPES Ob” value was 65% and 100%. The “% Injury Ob” value in [2] (ECHCG, 4.38 g/ha alone) came to 0%; in assay [2] (ECHCG, 8.75 g/ha alone), 0%; in [2] (ECHCG, 17.5 g/ha alone), 0%; in [2] (ECHCG, 35 g/ha alone) it was 10%; in [5] (17.5 g/ha alone), 0%; in [5] (35 g/ha alone), 0%. Besides, in assay [5] (70 g/ha alone), the “% Injury Ob” value was 0%. In addition, the “% Injury CYPIR Ob” value is on record as 25% in the assay with Cyperus iria L. (CYPIR) (alone 8.75 g/ha) and 40% in the assay on Cyperus iria L. (CYPIR) (alone 35 g/ha). Moreover, the “% Injury POLPE Ob” value was 85% in [7] (alone 35 g/ha) and 100% in assay [7] (alone 70 g/ha). Also, the “% Injury IPOHE Ob” value is 40% in [9] (alone 4.38 g/ha); 50% and 40% in assay [9] (alone 17.5 g/ha); 85% in assay [9] (alone 70 g/ha). The “% Injury LEFCH Ob” value in [3] (alone 4.38 g/ha) was found to be 0%.

As to `COCc1cnc(C2=NC(C)(C(C)C)C(=O)N2)c(C(=O)O)c1` (stereo not shown) [Imazamox], the “% Injury ISCRU Ob” value in assay [10] (alone 22.4 g/ha) is 50%.

Take `CCc1cnc(C2=NC(C)(C(C)C)C(=O)N2)c(C(=O)O)c1` (stereo not shown) [Imazethapyr]: the “% Injury ISCRU Ob” value in assay [10] (alone 35 g/ha) came to 20%.

As to `COc1cnc(OC)n2nc(NS(=O)(=O)c3c(OCC(F)F)cccc3C(F)(F)F)nc12` [Penoxsulam], the “% Injury CYPES Ob” value in [6] (alone 17.5 g/ha) stood at 10%. The “% Injury Ob” value in assay [2] (ECHCG, 4.38 g/ha alone) was 70%; with Cyperus species (CYPSS) (CYPES, 8.75 g/ha alone), 40%; with Cyperus species (CYPSS) (CYPIR, 8.75 g/ha alone), 70%; in [4] (8.75 g/ha alone) it was 0%; in assay [5] (8.75 g/ha alone), 0%; in assay [5] (17.5 g/ha alone), 15%. In assay [5] (35 g/ha alone), the “% Injury Ob” value turned out to be 20%. For the same compound, the “% Injury IPOHE Ob” value was found to be 70% in assay [9] (alone 4.38 g/ha) and 60% in assay [9] (alone 8.75 g/ha). Further, the “% Injury LEFCH Ob” value in assay [3] (alone 17.5 g/ha) and in assay [3] (alone 35 g/ha) was 0% in each case. Besides, the “% Injury Obs” value in [4] (8.75 g/ha alone) stood at 0%.

With `CCC(=O)Nc1ccc(Cl)c(Cl)c1` [Propanil], the “% Injury at 11 DAA CYPIR Ob” value in the assay with Cyperus iria L. (CYPIR) (alone 560 g/ha) and in the assay on Cyperus iria L. (CYPIR) (alone 1120 g/ha) was 10% throughout. Further, the “% Injury at 21 DAA CYPIR Ob” value with Cyperus iria L. (CYPIR) (alone 560 g/ha) and in the assay with Cyperus iria L. (CYPIR) (alone 1120 g/ha) was 0% throughout. The entries for the “% Injury POLPE Ob” value in [7] (alone 560 g/ha) and in assay [7] (alone 1120 g/ha) were 10% and 40%, respectively. Also, the “% Injury IPOHE Ob” value in [9] (alone 560 g/ha) and in assay [9] (alone 1120 g/ha) was 10% each time. Moreover, the “% Injury at 11 DAA SCPMA Ob” value in [11] (alone 560 g/ha) and in assay [11] (alone 1120 g/ha) was 30% in each case. Also, the “% Injury at 21 DAA SCPMA Ob” value in assay [11] (alone 560 g/ha) and in assay [11] (alone 1120 g/ha) was 0% in each case.

The values above are taken from patent US10556865B2, “Synergistic herbicidal composition containing certain pyridine or pyrimidine carboxylic acids and certain cereal and rice herbicides” (Dow AgroSciences, LLC, priority 2007, dated 2020).
